In the NIST ThermoML archive (doi:10.1016/j.jct.2007.05.004):
± gives the expanded uncertainty stated by the source.

Details: 101 kPa, Liquid

| SMILES | mass density (293.15 K) [kg/m3] | viscosity (293.15 K) [mPa·s] | mass density (298.15 K) [kg/m3] | viscosity (298.15 K) [mPa·s] | mass density (303.15 K) [kg/m3] | viscosity (303.15 K) [mPa·s] |
| --- | --- | --- | --- | --- | --- | --- |
| CCO [ethanol] | 789.75 ± 0.46 | 1.187 ± 0.015 | 785.46 ± 0.47 | 1.082 ± 0.014 | 781.15 ± 0.47 | 0.987 ± 0.013 |
| CO [methanol] | 791.9 ± 0.46 | 0.585 ± 0.008 | 787.2 ± 0.46 | 0.545 ± 0.008 | 782.48 ± 0.47 | 0.508 ± 0.007 |
| CCOC(C)=O [ethyl acetate] | 900.52 ± 0.29 | 0.452 ± 0.007 | 894.43 ± 0.3 | 0.426 ± 0.006 | 888.3 ± 0.31 | 0.403 ± 0.006 |
